Experiment: Bioavailability of salmon calcitonin after nasal application (plasma concentration by radio-immuno-assay)
Design: species or system rhesus monkeys
Settings: rhesus monkey, in vivo
Protocol: The drug compound concentration was measured in the plasma by radio-immuno-assay. The salmon calcitonin determinations were carried out up to 6 hours after application.

- bioavailability as % of the value measured with the best known resorption promoter: 67%
- bioavailability as % of the values found after application without resorption promoter: > 400%
Substance: salmon calcitonin
